Tested on: IL-1β production in PMA-differentiated THP-1 cells
Assay: IL-1β production in PMA-differentiated THP-1 cells stimulated with gramicidin (hTHP-1 assay, 2% fetal bovine serum)
Format: cell-based
Conditions: Homo sapiens, hTHP-1 assay containing 2% fetal bovine serum, gramicidin 5 μM, IL-1β by HTRF, read-out: THP-1 IC50 (Average IC50 of compounds in hTHP-1 assay)
Description: The following protocol is suitable for testing the activity of the compounds disclosed herein.
Procedure 1: IL-1β Production in PMA-Differentiated THP-1 Cells Stimulated with Gramicidin.
THP-1 cells were purchased from the American Type Culture Collection and sub-cultured according to instructions from the supplier. Cells were cultured in complete RPMI 1640 (containing 10% heat inactivated FBS, penicillin (100 units/ml) and streptomycin (100 μg/ml)), and maintained in log phase prior to experimental setup. Prior to the experiment, compounds were dissolved in dimethyl sulfoxide (DMSO) to generate a 30 mM stock. The compound stock was first pre-diluted in DMSO to 3, 0.34, 0.042 and 0.0083 mM intermediate concentrations and subsequently spotted using Echo550 liquid handler into an empty 384-well assay plate to achieve desired final concentration (e.g. 100, 33, 11, 3.7, 1.2, 0.41, 0.14, 0.046, 0.015, 0.0051, 0.0017 μM). DMSO was backfilled in the plate to achieve a final DMSO assay concentration of 0.37%. The plate was then sealed and stored at room temperature until required.
THP-1 cells were treated with PMA (Phorbol 12-myristate 13-acetate) (20 ng/ml) for 16-18 hours. On the day of the experiment the media was removed and adherent cells were detached with trypsin for 5 minutes. Cells were then harvested, washed with complete RPMI 1640, spun down, and resuspended in RPMI 1640 (containing 2% heat inactivated FBS, penicillin (100 units/ml) and streptomycin (100 μg/ml). The cells were plated in the 384-well assay plate containing the spotted compounds at a density of 50,000 cells/well (final assay volume 50 μl). Cells were incubated with compounds for 1 hour and then stimulated with gramicidin (5 μM) (Enzo) for 2 hours. Plates were then centrifuged at 340 g for 5 min. Cell free supernatant (40 μL) was collected using a 96-channel PlateMaster (Gilson) and the production of IL-1β was evaluated by HTRF (cisbio). The plates were incubated for 18 h at 4° C. and read using the preset HTRF program (donor emission at 620 nm, acceptor emission at 668 nm) of the SpectraMax i3x spectrophotometer (Molecular Devices, software SoftMax 6). A vehicle only control and a dose titration of CRID3 (100-0.0017 μM) were run concurrently with each experiment.
Procedure 2: IL-1β Production in PMA-Differentiated THP-1 Cells Stimulated with Gramicidin.
THP-1 cells were purchased from the American Type Culture Collection and sub-cultured according to instructions from the supplier. Prior to experiments, cells were cultured in complete RPMI 1640 (containing 10% heat inactivated FBS, penicillin (100 units/ml) and streptomycin (100 μg/ml)), and maintained in log phase prior to experimental setup. Prior to the experiment THP-1 were treated with PMA (Phorbol 12-myristate 13-acetate) (20 ng/ml) for 16-18 hours. Compounds were dissolved in dimethyl sulfoxide (DMSO) to generate a 30 mM stock. On the day of the experiment the media was removed and adherent cells were detached with trypsin for 5 minutes. Cells were then harvested, washed with complete RPMI 1640, spun down, resuspended in RPMI 1640 (containing 2% heat inactivated FBS, penicillin (100 units/ml) and streptomycin (100 μg/ml). The cells were plated in a 384-well plate at a density of 50,000 cells/well (final assay volume 50 μl). Compounds were first dissolved in assay medium to obtain a 5× top concentration of 500 μM. 10 step dilutions (1:3) were then undertaken in assay medium containing 1.67% DMSO. 5× compound solutions were added to the culture medium to achieve desired final concentration (e.g. 100, 33, 11, 3.7, 1.2, 0.41, 0.14, 0.046, 0.015, 0.0051, 0.0017 μM). Final DMSO concentration was at 0.37%. Cells were incubated with compounds for 1 hour and then stimulated with gramicidin (5 μM) (Enzo) for 2 hours. Plates were then centrifuged at 340 g for 5 min. Cell free supernatant (40 μL) was collected using a 96-channel PlateMaster (Gilson) and the production of IL-1β was evaluated by HTRF (cisbio). […]

Row | SMILES | IC50
1 | CC(C)(O)c1ncc(C(=O)c2ccn(-c3c4c(cc5c3CCC5)CCC4)n2)s1 [Compound 118] | 5 to 30 µM
2 | CC(C)(O)c1ncc(C(NC(=O)OCc2ccccc2)c2ccn(-c3c4c(cc5c3CCC5)CCC4)n2)s1 (stereo not drawn) [Compound 102, Benzyl (1-(1,2,3,5,6,7-hexahydros-indacen-4-yl)-1H-pyrazol-3-yl)(2-(2-hydroxypropan-2-yl)thiazol-5-yl)methylcarbamate] | 5 to 30 µM
3 | O=C(NCc1cnn(-c2c3c(cc4c2CCC4)CCC3)c1)OCc1ccccc1 [Compound 200, Benzyl ((1-(1,2,3,5,6,7-hexahydro-s-indacen-4-yl)-1H-pyrazol-4-yl)methyl)carbamate] | 5 to 30 µM
4 | CC(C)(O)c1ncc(S(=O)(=O)c2cnn(-c3c4c(cc5c3CCC5)CCC4)c2)s1 [Compound 115, 2-(5-((1-(1,2,3,5,6,7-hexahydro-s-indacen-4-yl)-1H-pyrazol-4-yl)sulfonyl)thiazol-2-yl)propan-2-ol] | 5 to 30 µM
5 | CC(C)(O)c1cnc(S(=O)(=O)c2cnn(-c3c4c(cc5c3CCC5)CCC4)c2)s1 [Compound 104, 2-(2-((1-(1,2,3,5,6,7-hexahydro-s-indacen-4-yl)-1H-pyrazol-4-yl)sulfonyl)thiazol-5-yl)propan-2-ol] | 5 to 30 µM

The remaining lines, values ahead:

Row | IC50 | SMILES
6 | 5 to 30 µM | CC(C)(O)c1ncc([C@@H](NC(=O)OCc2ccccc2)c2ccn(-c3c4c(cc5c3CCC5)CCC4)n2)s1 (single isomer, unassigned) [Compound 116]
7 | 5 to 30 µM | CC(C)(O)c1ncc(C(CNC(=O)c2ccccc2)c2cnn(-c3c4c(cc5c3CCC5)CCC4)c2)s1 (stereo not drawn) [Compound 114]
8 | 5 to 30 µM | CC(C)(O)c1ncc(C(=O)c2ccnn2-c2c3c(cc4c2CCC4)CCC3)s1 [Compound 103]
9 | 1 to 5 µM | CC(C)(O)c1ncc(C(CNC(=O)OCc2ccccc2)c2cnn(-c3c4c(cc5c3CCC5)CCC4)c2)s1 (stereo not drawn) [Compound 101, Benzyl (2-(1-(1,2,3,5,6,7-hexahydro-s-indacen-4-yl)-1H-pyrazol-4-yl)-2-(2-(2-hydroxypropan-2-yl)thiazol-5-yl)ethyl) carbamate]

From patent US12421223B2, “Compounds and compositions for treating conditions associated with NLRP activity” (Novartis AG, priority 2018, dated 2025)
